# Key:
# YKL-5-124 = compound: C=CC(=O)Nc1ccc(C(=O)Nc2[nH]nc3c2CN(C(=O)N[C@H](CN(C)C)c2ccccc2)C3(C)C)cc1 [YKL-5-124]; experiment: increase in dead-cell fraction, 72 h; higher = more death;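 note: breast cancer cell lines in 384-well plates, stained with Hoechst plus LIVE/DEAD far red dye and imaged, cells above an LDR intensity threshold counted dead, Hoechst-negative corpses included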
# BSJ-03-123 = compound: CC(=O)c1c(C)c2cnc(Nc3ccc(N4CCN(CCOCCOCCOCCNC(=O)COc5cccc6c5C(=O)N(C5CCC(=O)NC5=O)C6=O)CC4)cn3)nc2n(C2CCCC2)c1=O [BSJ-03-123]; experiment: as above
# [1] = compound: CC(=O)c1c(C)c2cnc(Nc3ccc(N4CCNCC4)cn3)nc2n(C2CCCC2)c1=O; experiment: as above
# [2] = compound: CCN1CCN(Cc2ccc(Nc3ncc(F)c(-c4cc(F)c5nc(C)n(C(C)C)c5c4)n3)nc2)CC1; experiment: as above
# Neratinib/HKI272 [3] = compound: T1, CCOc1cc2ncc(C#N)c(Nc3ccc(OCc4ccccn4)c(Cl)c3)c2cc1NC(=O)/C=C/CN(C)C [Neratinib/HKI272]; experiment: as above
# [4] = compound: CCc1cnn2c(NCc3ccc[n+]([O-])c3)cc(N3CCCC[C@H]3CCO)nc12; experiment: as above
# LEE011/Ribociclib = compound: CN(C)C(=O)c1cc2cnc(Nc3ccc(N4CCNCC4)cn3)nc2n1C1CCCC1 [LEE011/Ribociclib]; experiment: as above
# THZ531 = compound: CN(C)C/C=C/C(=O)Nc1ccc(C(=O)N2CCC[C@@H](Nc3ncc(Cl)c(-c4c[nH]c5ccccc45)n3)C2)cc1 [THZ531]; experiment: as above
# THZ1 = compound: CN(C)C/C=C/C(=O)Nc1ccc(C(=O)Nc2cccc(Nc3ncc(Cl)c(-c4c[nH]c5ccccc45)n3)c2)cc1 [THZ1]; experiment: as above
# Flavopiridol [5] = compound: T2, CN1CC[C@H](c2c(O)cc(O)c3c(=O)cc(-c4ccccc4Cl)oc23)[C@H](O)C1 [Flavopiridol]; experiment: as above
# Neratinib/HKI272 [6] = compound: T1, Neratinib/HKI272; experiment: GR value, 72 h; higher = faster growth (1 = untreated, <0 = killing);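 note: breast cancer and non-malignant breast epithelial lines, nine half-log doses, viable cells counted by Hoechst and LIVE/DEAD dye imaging versus time-zero plates and DMSO controls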
# Flavopiridol [7] = compound: T2, Flavopiridol; experiment: as above
cell line,measurement,setting,value
184A1,increase in dead-cell fraction,YKL-5-124; 0.001 µM,0.02
same,increase in dead-cell fraction,YKL-5-124; 0.003162 µM,0.0379
same,increase in dead-cell fraction,YKL-5-124; 0.01 µM,0.119
same,increase in dead-cell fraction,YKL-5-124; 0.03162 µM,0.122
same,increase in dead-cell fraction,YKL-5-124; 0.1 µM,0.147
same,increase in dead-cell fraction,YKL-5-124; 0.3162 µM,0.0805
same,increase in dead-cell fraction,YKL-5-124; 1 µM,0.137
same,increase in dead-cell fraction,YKL-5-124; 3.162 µM,0.179
same,increase in dead-cell fraction,YKL-5-124; 10 µM,0.34
same,increase in dead-cell fraction,BSJ-03-123; 0.001 µM,0.0061
same,increase in dead-cell fraction,BSJ-03-123; 0.003162 µM,0.0101
same,increase in dead-cell fraction,BSJ-03-123; 0.01 µM,0.0181
same,increase in dead-cell fraction,BSJ-03-123; 0.03162 µM,0.0097
same,increase in dead-cell fraction,BSJ-03-123; 0.1 µM,0.0423
same,increase in dead-cell fraction,BSJ-03-123; 0.3162 µM,0.0318
same,increase in dead-cell fraction,BSJ-03-123; 1 µM,0.0505
same,increase in dead-cell fraction,BSJ-03-123; 3.162 µM,0.0581
same,increase in dead-cell fraction,BSJ-03-123; 10 µM,0.179
same,increase in dead-cell fraction,[1]; 0.0003162 µM,-0.0004
same,increase in dead-cell fraction,[1]; 0.001 µM,0.0016
same,increase in dead-cell fraction,[1]; 0.003162 µM,-0.0008
same,increase in dead-cell fraction,[1]; 0.01 µM,0.0001
same,increase in dead-cell fraction,[1]; 0.03162 µM,0.0086
same,increase in dead-cell fraction,[1]; 0.1 µM,0.0183
same,increase in dead-cell fraction,[1]; 0.3162 µM,0.0224
same,increase in dead-cell fraction,[1]; 1 µM,0.0414
same,increase in dead-cell fraction,[1]; 3.162 µM,0.0383
same,increase in dead-cell fraction,[2]; 0.001 µM,0.0016
same,increase in dead-cell fraction,[2]; 0.003162 µM,0.0047
same,increase in dead-cell fraction,[2]; 0.01 µM,0.0067
same,increase in dead-cell fraction,[2]; 0.03162 µM,0.0185
same,increase in dead-cell fraction,[2]; 0.1 µM,0.0336
same,increase in dead-cell fraction,[2]; 0.3162 µM,0.0578
same,increase in dead-cell fraction,[2]; 1 µM,0.056
same,increase in dead-cell fraction,[2]; 3.162 µM,0.0434
same,increase in dead-cell fraction,[2]; 10 µM,0.229
same,increase in dead-cell fraction,Neratinib/HKI272 [3]; 0.0003162 µM,-0.004
same,increase in dead-cell fraction,Neratinib/HKI272 [3]; 0.001 µM,-0.0007
same,increase in dead-cell fraction,Neratinib/HKI272 [3]; 0.003162 µM,-0.0029
same,increase in dead-cell fraction,Neratinib/HKI272 [3]; 0.01 µM,0.001
same,increase in dead-cell fraction,Neratinib/HKI272 [3]; 0.03162 µM,0.0214
same,increase in dead-cell fraction,Neratinib/HKI272 [3]; 0.1 µM,0.0256
same,increase in dead-cell fraction,Neratinib/HKI272 [3]; 0.3162 µM,0.0311
same,increase in dead-cell fraction,Neratinib/HKI272 [3]; 1 µM,0.028
same,increase in dead-cell fraction,Neratinib/HKI272 [3]; 3.162 µM,0.0419
same,increase in dead-cell fraction,[4]; 0.0001 µM,-0.0039
same,increase in dead-cell fraction,[4]; 0.0003162 µM,-0.0006
same,increase in dead-cell fraction,[4]; 0.001 µM,-0.0027
same,increase in dead-cell fraction,[4]; 0.003162 µM,-0.0019
same,increase in dead-cell fraction,[4]; 0.01 µM,0.0164
same,increase in dead-cell fraction,[4]; 0.03162 µM,0.277
same,increase in dead-cell fraction,[4]; 0.1 µM,0.127
same,increase in dead-cell fraction,[4]; 0.3162 µM,0.363
same,increase in dead-cell fraction,[4]; 1 µM,0.368
same,increase in dead-cell fraction,LEE011/Ribociclib; 0.001 µM,0.0076
same,increase in dead-cell fraction,LEE011/Ribociclib; 0.003162 µM,0.0015
same,increase in dead-cell fraction,LEE011/Ribociclib; 0.01 µM,0.0139
same,increase in dead-cell fraction,LEE011/Ribociclib; 0.03162 µM,0.0172
same,increase in dead-cell fraction,LEE011/Ribociclib; 0.1 µM,0.0129
same,increase in dead-cell fraction,LEE011/Ribociclib; 0.3162 µM,0.0139
same,increase in dead-cell fraction,LEE011/Ribociclib; 1 µM,0.0153
same,increase in dead-cell fraction,LEE011/Ribociclib; 3.162 µM,0.015
same,increase in dead-cell fraction,LEE011/Ribociclib; 10 µM,0.041
same,increase in dead-cell fraction,THZ531; 0.0001 µM,0.0016
same,increase in dead-cell fraction,THZ531; 0.0003162 µM,0.0042
same,increase in dead-cell fraction,THZ531; 0.001 µM,0.0042
same,increase in dead-cell fraction,THZ531; 0.003162 µM,0.0053
same,increase in dead-cell fraction,THZ531; 0.01 µM,-0.004
same,increase in dead-cell fraction,THZ531; 0.03162 µM,0.0024
same,increase in dead-cell fraction,THZ531; 0.1 µM,0.0107
same,increase in dead-cell fraction,THZ531; 0.3162 µM,0.0204
same,increase in dead-cell fraction,THZ531; 1 µM,0.447
same,increase in dead-cell fraction,THZ1; 0.0001 µM,-0.0006
same,increase in dead-cell fraction,THZ1; 0.0003162 µM,0.0038
same,increase in dead-cell fraction,THZ1; 0.001 µM,0.0021
same,increase in dead-cell fraction,THZ1; 0.003162 µM,0.0076
same,increase in dead-cell fraction,THZ1; 0.01 µM,0.0448
same,increase in dead-cell fraction,THZ1; 0.03162 µM,0.169
same,increase in dead-cell fraction,THZ1; 0.1 µM,0.175
same,increase in dead-cell fraction,THZ1; 0.3162 µM,0.152
same,increase in dead-cell fraction,Flavopiridol [5]; 0.0001 µM,-0.0061
same,increase in dead-cell fraction,Flavopiridol [5]; 0.0003162 µM,0.0046
same,increase in dead-cell fraction,Flavopiridol [5]; 0.001 µM,-0.0038
same,increase in dead-cell fraction,Flavopiridol [5]; 0.003162 µM,-0.0001
same,increase in dead-cell fraction,Flavopiridol [5]; 0.01 µM,0.0054
same,increase in dead-cell fraction,Flavopiridol [5]; 0.03162 µM,0.0223
same,increase in dead-cell fraction,Flavopiridol [5]; 0.1 µM,0.0902
same,increase in dead-cell fraction,Flavopiridol [5]; 0.3162 µM,0.231
same,increase in dead-cell fraction,Flavopiridol [5]; 1 µM,0.0866
same,GR value,Neratinib/HKI272 [6]; 0.0003162 µM,0.998 GR
same,GR value,Neratinib/HKI272 [6]; 0.001 µM,1 GR
same,GR value,Neratinib/HKI272 [6]; 0.003162 µM,1.02 GR
same,GR value,Neratinib/HKI272 [6]; 0.01 µM,0.853 GR
same,GR value,Neratinib/HKI272 [6]; 0.03162 µM,0.468 GR
same,GR value,Neratinib/HKI272 [6]; 0.1 µM,0.287 GR
same,GR value,Neratinib/HKI272 [6]; 0.3162 µM,0.219 GR
same,GR value,Neratinib/HKI272 [6]; 1 µM,0.198 GR
same,GR value,Neratinib/HKI272 [6]; 3.162 µM,0.166 GR
same,GR value,Flavopiridol [7]; 0.0001 µM,1.04 GR
same,GR value,Flavopiridol [7]; 0.0003162 µM,1 GR
same,GR value,Flavopiridol [7]; 0.001 µM,1.01 GR
same,GR value,Flavopiridol [7]; 0.003162 µM,0.931 GR
same,GR value,Flavopiridol [7]; 0.01 µM,0.838 GR
same,GR value,Flavopiridol [7]; 0.03162 µM,0.614 GR
same,GR value,Flavopiridol [7]; 0.1 µM,0.0558 GR
same,GR value,Flavopiridol [7]; 0.3162 µM,-0.172 GR
same,GR value,Flavopiridol [7]; 1 µM,-0.307 GR

# From the supplement of paper PMC9663587
